Test results taken from patent publication US10994010B2, “Selective targeting of the CD40L/Mac-1 interaction by small peptide inhibitors and its use for the treatment of inflammation and atherogenesis” (Universitaetsklinikum Freiburg, priority 2010, dated 2021).
Positions of bridges follow the written chain, without caps; N, C: chain ends. Residues, ends and D or L forms follow the SMILES beside them.

Columns and labels:
LDLr−/− mice = experiment: Atherogenesis study, high-cholesterol diet 20 weeks; format: in vivo
Experimental: Atherogenesis study. Eight-week-old male LDL-receptor-deficient (LDLr^−/−) mice (Jackson Laboratories) consuming a high-cholesterol diet (HCD) were treated with intraperitoneal injections of the peptides cM7, scM7 (Peptide Specialty Laboratory) in a dose of 100 μg, or sterile saline three times a week. After 20 weeks blood samples were taken for flow cytometric analysis of leukocyte subpopulations, cholesterol and triglyceride plasma levels, as well as for the determination of plasma cytokines and chemokines. Blood pressure was determined by a non-invasive blood pressure measurement (NIBP, Harvard Apparatus). Mice were euthanized, and aortic roots and arches were frozen in OCT (OCT compound; Tissue-Tek). Thoracic and abdominal aortas were fixed in 10% buffered formalin. Serial cryostat sections (6 μm) of mouse aortic tissues were fixed in acetone, and air-dried. Nonspecific binding was blocked with 5% species-appropriate normal serum (Vector Laboratories). Sections were then incubated with primary antibodies diluted in phosphate-buffered saline, supplemented with 5% species-appropriate normal serum. Incubation with secondary antibodies was followed by avidin-biotin complex (ABC, Vector Laboratories). Antibody binding was visualized with 3-amino-9-ethylcarbazole (AEC; Dako), followed by counterstaining with Gill's hematoxylin solution (Sigma-Aldrich). Control stainings included staining with the respective IgG isotypes (Pharmingen, Dako). Antibodies used were rat anti-mouse Mac-3 for macrophage specific staining, anti α-actin for smooth muscle cell specific staining (Dako). For the visualization of Type I Collagen, Formalin-fixed frozen sections were incubated for 4 hours in a freshly prepared 0.1% solution of picrosirius red (Polysciences) in saturated aqueous picric acid. After rinsing in 0.01 N HCl and distilled water, sections were dehydrated in 70% ethanol and mounted in Permount (Vector Laboratories). Picrosirius red staining was analyzed by polarization microscopy. As the color of collagen fibers assessed in the picrosirius red staining depends on the thickness of collagen fibers and changes from green (thin fibers) to yellow, orange, and red (thick fibers), color distribution in stained collagen sections was quantified. Deposition of lipids was determined by oil red O staining after formalin fixation in aortic sections or in en face preparations of the abdominal aorta. To quantify the composition of the aortic lesions, sections of the aortic tissue were analyzed microscopically in all mice. Within the aortic root, lesion areas were analyzed in cross-sections obtained at the level of all 3 leaflets of the aortic valve, immediately proximal to the right coronary artery ostium. The total aortic wall area, lesion area in the aortic root, and the percentage of area stained for macrophages, lipids, SMCs, or collagen were determined via computer-assisted image quantification (ImagePro, Media Cybernetics).

C57BL/6J mice [1] = experiment: Tail bleeding time; conditions: mouse, in vivo
Experimental: (§1) Potential side effects were checked in an in vivo thrombosis model. 3-4 weeks old C57BL/6J mice received an intraperitoneal injection of either sterile saline (100 μl), the peptides cM7, scM7, or the indicated antibodies. A mesenteric arteriole was chosen and injured with ferrichloride. Platelets were stained by retroorbital injection of rhodamine […] and visualized through an intravital microscope (AxioScope Vario, Carl Zeiss). Vessel occlusion time and thrombus embolization rate was analyzed. Tail bleeding time was determined as previously reported (Andre et al., Loc. Cit.).

TNFα-challenged mice = conditions: mouse, in vivo
Experimental: Mice received an intraperitoneal injection 5 hours before surgery of 200 ng of murine TNFα (R&D systems) and 100 μg of peptides dissolved in sterile saline 5 hours before surgery. Mice were anesthetized with an intraperitoneal injection of ketamine hydrochloride (Essex) and xylazin (Bayer) at a dose at 187.5 mg/kg of body weight and 62.5 mg/kg of body weight, respectively. The cremaster muscle was exteriorized as described previously (Iezzi et al., PNAS (2009), pp 876-881). For some experiments a catheter was placed in the jugular vein and peptides were administered during microscopy. The cremaster was superfused with thermo-controlled (36° C.) saline. Mice were placed on a heating pad to maintain body temperature. Videos were taken with an intravital microscope (AxioScope Vario, Carl Zeiss) fitted with a saline immersion objective (WPlan-APOCHROMAT 20x/1,0DIC IR, Carl Zeiss) a high sensitivity camera system (AxioCam MRm, Carl Zeiss) for 30 seconds each. Rolling leukocyte flux was defined as the number of leukocytes moving at a velocity less than erythrocytes. Leukocyte rolling velocity was measured by the average time required for leukocytes to roll over a defined length of the venule at each time point. Adherent leukocytes were defined as cells that remained stationary for at least 30 s. Rolling leukocyte flux, adhering flux were quantified by a blinded investigator.

[2] = system: human umbilical vein endothelial cells (HUVECs); experiment: Cytotoxicity and apoptosis in cultivated HUVECs (caspase 3/7 activity, LDH release); format: cell-based
Experimental: (§2) (FIG. 6A, FIG. 6B) Macrophages recruited to the peritoneal cavity by thioglycollate where challenged by intraperitoneal injections of either cM7, scM7 or the blocking anti-Mac-1 antibody M1/70. […] (FIG. 4C, FIG. 4D) In vitro cultivated human umbilical vein endothelial cells (HUVECs) were incubated with cM7, scM7 or a combination of CD40L or a blocking anti-CD40 antibody. […] Data are presented as mean±SEM of at least 3 independent experiments.

C57BL/6J mice [3] = experiment: In vivo thrombosis model (ferrichloride injury of mesenteric arteriole)
Experimental: as §1

peritoneal macrophages = experiment: Apoptosis and necrosis of thioglycollate-recruited peritoneal macrophages in vivo (annexin V, propidium iodide); conditions: intraperitoneal injection, after 4 hours
Experimental: as §2

[4] = system: CD40L-transfected murine fibroblasts; experiment: Flow cytometry: binding of FITC-cM7 to CD40L- or mock-transfected murine fibroblasts; format: cell-based
Experimental: Flow cytometric analysis, platelet activation assays, and quantification of leukocyte-platelet aggregates, were performed as previously described (Zirlik et al., 2007). Binding of cM7 to CD40L-expressing murine fibroblasts was determined by quantification of FITC-coupled cM7. Binding of CD40L to Mac-1 expressing CHO-cells or human leukocytes was performed by incubation with CD40L (10 μg/ml) and subsequent detection with anti-PentaHis antibody (Qiagen).
Flow cytometric analyses, as well as platelet activation assays and quantification of leukocyte-platelet aggregates were performed as previously described (Quezada et al., Ann. Rev. Immunol. (2004), pp 307-328). Briefly, murine blood samples were taken by intracardiac puncture. Red cells were lyzed in 155 mM NH4Cl, 5.7 mM K2HPO4, 0.1 mM EDTA, pH 7.3. […] Antibodies for epitope specific fluorescence-activated cell sorting (FACS Calibur, BD) included anti-CD11b, anti-CD115, anti-Gr-1, anti-CD4, anti-CD8, anti-CD20, anti-CD41, anti-CD62P, anti-CD54, anti-CD102, and anti-CD106 (all from Ebioscience). Binding of cM7 to CD40L- or mock-transfected murine fibroblasts was determined by incubation of FITC-cM7 at the indicated concentrations with cells for 30 min at 37° C. and subsequent quantification of the fluorescence in the FL-1 channel. […]

[5] = molecular target: T1, CD40L binding to Mac-1 I-domain (Homo sapiens, UniProt P29965); experiment: Solid phase binding assay: blocking of CD40L binding to immobilized Mac-1 I-domain by peptides; conditions: peptides 50 μM
T1 construct: inserting the coding DNA for amino acids E^108 to L^261 in pHOG-21; His (N); trimerization domain (N); made in house
T1 sequence (P29965 108-261): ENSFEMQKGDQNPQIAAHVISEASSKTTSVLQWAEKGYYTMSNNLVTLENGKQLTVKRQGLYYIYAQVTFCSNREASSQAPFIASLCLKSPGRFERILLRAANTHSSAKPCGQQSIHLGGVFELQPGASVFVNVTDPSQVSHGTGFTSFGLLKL
Experimental: Solid phase binding assay. Recombinant CD40L was incubated with immobilized Mac-1 I-domain in the presence or absence of blocking peptides. Binding of sCD40L was detected by addition of anti-cmyc-HRP (Invitrogen), TMB-substrate (Pierce), and colorimetric reaction. Alternatively, CD40L (Provitro) was immobilized, and binding of the recombinant Mac-1 I-domain was quantified by addition of anti-His-Biotin (Qiagen), and HRP-coupled streptavidin (Pierce). For the binding to immobilized peptides, CD40L was biotinylated with the Micro Biotinylation Kit (Sigma). A mixture of equal molarities of all peptides served as the positive control in this assay.
The recombinant Mac-1 I-domain was immobilized in 96-well plates (Nunc) in PBS at 4° C. overnight. After blocking in 2% BSA/PBS and subsequent washing with PBS, recombinant CD40L was added to the wells in the indicated concentrations and incubated for 2 hours at 37° C. Effect of the peptides M1-M8 was assessed by incubating CD40L (10 μg/ml) in the presence of peptides (50 μM). After removing of unbound CD40L by washing with 0.1% Tween-20/PBS, anti-c-myc-HRP (Invitrogen) was added and incubated for 2 hours at room temperature. Binding was quantified by addition of TMB-substrate (Pierce), colorimetric reaction at 450 nm. Alternatively, CD40L without a His-tag (Provitro) was immobilized and blocked as described above. Binding of the recombinant Mac-1 I-domain was quantified by addition of anti-His-Biotin monoclonal antibody (Qiagen), HRP-coupled streptavidin (Pierce) and colorimetric reaction at 450 nm. For the specific binding of the Mac-1 I-domain BSA-coated wells were subtracted from the CD40L-coated. Kd was estimated using a one-site binding hyperbola nonlinear regression model with the Software Prism (Graphpad). For quantification of the binding of CD40L to peptides, peptides were immobilized in 96-well plates overnight at 4° C. in 50 mM sodium carbonate, pH 10.6. CD40L was biotinylated using the Micro-Biotinylation-Kit (Sigma) following the manufacturer's instructions and detected by HRP-coupled streptavidin (Pierce) and colorimetric reaction. A mixture of equal molarities of all peptides served as positive control. Absorbance on BSA-coated wells served as negative control and was subtracted.

Compound: CC(C)C[C@@H]1NC(=O)[C@H](CCC(N)=O)NC(=O)[C@H](CCC(=O)O)NC(=O)[C@@H](N)CSSC[C@@H](C(=O)O)NC(=O)[C@H](CC(C)C)NC(=O)[C@H]([C@@H](C)O)NC(=O)[C@H](CCCCN)NC(=O)[C@H](CO)NC(=O)[C@H](CCCCN)NC(=O)[C@H](CCCCN)NC1=O [cM7] (H-CEQLKKSKTLC-OH; disulfide 1-11 (inferred); N-terminus and C-terminus assumed)
- Leukocytes (LDLr−/− mice; AF): 4.54 ± 1.28 ×1000/μl
- Platelets (LDLr−/− mice; AF): 486 ± 198 ×1000/μl
- Weight (LDLr−/− mice; AF: after feeding): 35.7 ± 3.8 g
- Leukocytes (LDLr−/− mice; BF): 11.2 ± 3.1 ×1000/μl
- Platelets (LDLr−/− mice; BF): 529 ± 53 ×1000/μl
- Weight (LDLr−/− mice; BF: before feeding): 23.4 ± 2.3 g
- immunologic characteristics (T cells, B cells, cytokines) (LDLr−/− mice; long-term treatment): Any changes in immunologic characteristics were not observed
- effect on bleeding time (C57BL/6J mice [1]): did not affect bleeding time
- Heart rate (TNFα-challenged mice): 628 ± 63 bpm
- Leukocytes (TNFα-challenged mice): 11.9 ± 2.3 ×1000/μl
- Platelets (TNFα-challenged mice): 552 ± 174 ×1000/μl
- Systolic blood pressure (TNFα-challenged mice): 97.6 ± 6.5 mmHg
- apoptosis of endothelial cells, LDH-release ([2]; CD40L primed HUVECs): slightly increased in CD40L primed HUVECs
- cellular cytotoxicity, caspase 3/7-activity ([2]; HUVECs, 24 hours): did not induce cellular cytotoxicity
- effect on vessel occlusion time (C57BL/6J mice [3]; model of arterial thrombosis): did not prolong vessel occlusion time
- effect on thromboembolization rate (C57BL/6J mice [3]; mouse, in vivo): only caused a slight increase in thromboembolization rate
- apoptotic or necrotic cells in vivo (annexin V binding, propidium iodide loading) (peritoneal macrophages): did not cause an increase of apoptotic or necrotic cells in vivo

Compound: C-EQLKKSKTL-C (CEQLKKSKTLC; bridge N-C; also: cyclised through the flanking Cys, bond type not given here) [FITC-labeled cM7]
- binding to murine fibroblasts over-expressing CD40L [4]: concentration-dependently bound to murine fibroblasts over-expressing CD40L
- binding to mock-transfected fibroblasts ([4]; control cells): but not to respective mock-transfected control cells

Compound: DAFRSEKSRQELNTI (therapeutically active peptide) [Peptide M4]
- blocking of CD40L / Mac-1 I-domain binding [5]: emerged as potential candidate inhibitors

Compound: FQVNNFEALKT (therapeutically active peptide) [Peptide M5]
- blocking of CD40L / Mac-1 I-domain binding [5]: emerged as potential candidate inhibitors

Compound: KFGDPLGYEDVIPEADR (therapeutically active peptide) [Peptide M3]
- blocking of CD40L / Mac-1 I-domain binding [5]: emerged as potential candidate inhibitors
